Measurements: patent publication US20190070139A1, “AGENT FOR IMPROVING PHYSICAL FITNESS” (AJINOMOTO CO., INC, priority 2016, published 2019)

What was measured:
male CD2F1 mice = assay: Treadmill running until exhaustion (endurance capacity); assay type: in vivo, mouse
Procedure: 6-Week-old male CD2F1 mice (CHARLES RIVER LABORATORIES JAPAN, INC.) were divided into 3 groups of a group with ingestion of a normal diet (AIN-93G composition) and without exercise (non-exercise group), a group with ingestion of a normal diet and with exercise (exercise group), and a group with ingestion of a diet containing 2 wt % cystine (free form), which was prepared by replacing casein in the normal diet with cystine, and with exercise (exercise+2% cystine group). Each group ingested a test diet (normal diet or normal diet containing 2 wt % cystine) for 8 days. Thereafter, the exercise group and the exercise+2% cystine group were made to run on a treadmill until exhaustion for 3 consecutive days, and the running time until then was measured (FIG. 1). […] On the next day after completion of the 3-day running, the muscle of the mice in each group was collected, and the amount of glycogen in the muscle was measured. […] Thereafter, the mice were forced to run until exhaustion under the exercise conditions similar to those in Experimental Example 1, and the running time then was measured. […] The next day, the mice were made to run until exhaustion under the exercise conditions similar to those in Experimental Example 1, and the running time then was measured. The amount of increase in the running time was calculated as an endurance-improving effect. […]

[1] = system: glycogen in gastrocnemius muscle; assay: Amount of glycogen in gastrocnemius muscle; assay type: in vivo, mouse; conditions: Experimental Example 1; next day after 3-day continuous exercise; Ex+Cyt (2 wt % cystine diet) vs Ex
Procedure: 6-Week-old male CD2F1 mice (CHARLES RIVER LABORATORIES JAPAN, INC.) were divided into 3 groups of a group with ingestion of a normal diet (AIN-93G composition) and without exercise (non-exercise group), a group with ingestion of a normal diet and with exercise (exercise group), and a group with ingestion of a diet containing 2 wt % cystine (free form), which was prepared by replacing casein in the normal diet with cystine, and with exercise (exercise+2% cystine group). Each group ingested a test diet (normal diet or normal diet containing 2 wt % cystine) for 8 days. Thereafter, the exercise group and the exercise+2% cystine group were made to run on a treadmill until exhaustion for 3 consecutive days, and the running time until then was measured (FIG. 1). The non-exercise group was fasted and deprived of water during running of the other two groups. On the next day after completion of the 3-day running, the muscle of the mice in each group was collected, and the amount of glycogen in the muscle was measured. The amount of glycogen in muscle was measured as follows. […] Glucose in this solution was detected and quantified using “glucose CII-Test Wako” (manufactured by Wako Pure Chemical Industries, Ltd.). […] The groups with exercise were forced to run in a treadmill until exhaustion for 2 consecutive days and the running time then was measured. […]

## NC(CSSCC(N)C(=O)O)C(=O)O (stereo not drawn) [cystine, 3,3′-dithiobis(2-aminopropanoic acid)]
Male CD2F1 mice; Experimental Example 1, diet containing 2 wt % cystine for 8 days, then running until exhaustion for 3 consecutive days, Ex+Cyt vs Ex (normal diet)
  amount of increase in the running time by exercise: significantly (P<0.05 or P<0.01) higher
Male CD2F1 mice; Experimental Example 2, 2 wt % cystine diet given for one day after exercise on day 1, day 2 minus day 1, Ex+Cyt vs Ex
  amount of increase in the running time: tended to be higher
[1]
  amount of glycogen in gastrocnemius muscle: further significantly (P<0.05) increased
